From patent US20240124466A1, “COMPOUNDS AND USE THEREOF FOR TREATMENT OF NEURODEGENERATIVE, DEGENERATIVE AND METABOLIC DISORDERS” (VOVA IDA THERAPEUTICS, INC., priority 2020, published 2024) come the findings set out here.

In this experiment the test system is PK1 neuroblastoma cells exposed to TPrP. As to the kind of experiment: cells. The note with it: Neuroblastoma cell, 96 h, read-out: TPrP EC50.

`Cc1ccc(-c2nnc(-c3ccccc3)[nH]2)cc1S(=O)(=O)N1CCC2(CC1)OCCCO2` [SR-32744, 9-((2-Methyl-5-(5-phenyl-4H-1,2,4-triazol-3-yl)phenyl)sulfonyl)-1,5-dioxa-9-azaspiro[5.5]undecane]: the EC50 (commonly the concentration that produces a half-maximal response) was greater than 1500 nM.

With `Cc1ccc(NCc2ccncc2)cc1S(=O)(=O)N1CCOCC1` [SR-25464, 4-Methyl-3-(morpholinosulfonyl)-N-(pyridin-4-ylmethyl)aniline], the EC50 is greater than 320 nM.

In the case of `Cc1cc(F)c(-c2ccnc(Cl)c2)cc1S(=O)(=O)N1CCN(CCO)CC1` [SR-35015, 2-(4-((5-(2-Chloropyridin-4-yl)-4-fluoro-2-methylphenyl)sulfonyl)piperazin-1-yl)ethan-1-ol], the concentration giving a half-maximal response (EC50) was 50 nM.

For `Cc1ccc(-c2cn(-c3ccccc3)nn2)cc1S(=O)(=O)N1CCOCC1` [SR-30084, 4-((2-Methyl-5-(1-phenyl-1H-1,2,3-triazol-4-yl)phenyl)sulfonyl)morpholine], the EC50 worked out at 30 nM.

In the case of `Cc1ccc(-c2nnc(-c3ccccc3)[nH]2)cc1S(=O)(=O)N1CC(O)C1` [SR-32944, 1-((2-Methyl-5-(5-phenyl-4H-1,2,4-triazol-3-yl)phenyl)sulfonyl)azetidin-3-ol], the concentration giving a half-maximal response (EC50) amounted to 15 nM.

`Cc1ccc(-c2nnc(-c3ccccc3)n2C)cc1S(=O)(=O)N1CCOCC1` [SR-28864, 4-((2-Methyl-5-(4-methyl-5-phenyl-4H-1,2,4-triazol-3-yl)phenyl)sulfonyl) morpholine]: the EC50 was greater than 1200 nM.

Turning to `Cc1ccc(-c2nnc(-c3ccccc3)[nH]2)cc1S(=O)(=O)N1CCC2(CC1)OCc1ccccc12` [SR-32984, 1′-((2-Methyl-5-(5-phenyl-4H-1,2,4-triazol-3-yl)phenyl)sulfonyl)-3H-spiro[isobenzofuran-1,4′-piperidine]], the EC50 is greater than 1500 nM.

With `Cc1ccc(-c2nnc(-c3ccccc3)[nH]2)cc1S(=O)(=O)N1CCC(CCO)CC1` [SR-33725, 2-(1-((2-Methyl-5-(5-phenyl-4H-1,2,4-triazol-3-yl)phenyl)sulfonyl)piperidin-4-yl)ethan-1-ol], the EC50 was greater than 1500 nM.

On to `Cc1ccc(-c2nnc(-c3ccccc3)[nH]2)cc1S(=O)(=O)N1CCN(CCNC(=O)OC(C)(C)C)CC1` [SR-34024, tert-Butyl (2-(4-((2-methyl-5-(5-phenyl-4H-1,2,4-triazol-3-yl)phenyl)sulfonyl)piperazin-1-yl)ethyl)carbamate], for which the EC50 was roughly 1500 nM.

With `Cc1ccc(-c2nnc(-c3ccccc3)[nH]2)cc1S(=O)(=O)N1CCC(O)(c2cccnc2)CC1` [SR-32924, 1-((2-Methyl-5-(5-phenyl-4H-1,2,4-triazol-3-yl)phenyl)sulfonyl)-4-(pyridin-3-yl)piperidin-4-ol], the EC50 was greater than 1500 nM.

In the case of `Cc1ccc(-c2ccnc(Cl)c2)cc1S(=O)(=O)N1CCN(C(=O)c2ccco2)CC1` [SR-35516, (4-((5-(2-Chloropyridin-4-yl)-2-methylphenyl)sulfonyl)piperazin-1-yl)(furan-2-yl)methanone], the EC50 was found to be 270 nM.

Consider `Cc1ccc(-c2nc3ccccn3n2)cc1S(=O)(=O)N1CCOCC1` [SR-26524, 4-((5-([1,2,4]Triazolo[1,5-a]pyridin-2-yl)-2-methylphenyl)sulfonyl) morpholine], for which the EC50 came out at 50 nM.

As for `Cc1ccc(-c2c[nH]cc2-c2ccccc2)cc1S(=O)(=O)N1CCOCC1` [SR-29285, 4-((2-Methyl-5-(4-phenyl-1H-pyrrol-3-yl)phenyl)sulfonyl)morpholine], the 50% effective concentration (EC50) was greater than 1200 nM.

On to `O=S(=O)(c1cc(-c2nnc(-c3ccccc3)[nH]2)ccn1)N1CCOCC1` [SR-28004, 4-((4-(5-Phenyl-4H-1,2,4-triazol-3-yl)pyridin-2-yl)sulfonyl)morpholine], for which the EC50 is greater than 1200 nM.

Consider `Cc1ccc(-c2nnc(-c3ccccc3)[nH]2)cc1S(=O)(=O)NCc1cccnc1` [SR-31584, 2-Methyl-5-(5-phenyl-4H-1,2,4-triazol-3-yl)-N-(pyridin-3-ylmethyl)benzene sulfonamide], for which the EC50 stood at 90 nM.
